Molecular target: T1, Acetylcholinesterase (Rattus norvegicus, UniProt P37136)
T1 sequence (P37136 whole entry): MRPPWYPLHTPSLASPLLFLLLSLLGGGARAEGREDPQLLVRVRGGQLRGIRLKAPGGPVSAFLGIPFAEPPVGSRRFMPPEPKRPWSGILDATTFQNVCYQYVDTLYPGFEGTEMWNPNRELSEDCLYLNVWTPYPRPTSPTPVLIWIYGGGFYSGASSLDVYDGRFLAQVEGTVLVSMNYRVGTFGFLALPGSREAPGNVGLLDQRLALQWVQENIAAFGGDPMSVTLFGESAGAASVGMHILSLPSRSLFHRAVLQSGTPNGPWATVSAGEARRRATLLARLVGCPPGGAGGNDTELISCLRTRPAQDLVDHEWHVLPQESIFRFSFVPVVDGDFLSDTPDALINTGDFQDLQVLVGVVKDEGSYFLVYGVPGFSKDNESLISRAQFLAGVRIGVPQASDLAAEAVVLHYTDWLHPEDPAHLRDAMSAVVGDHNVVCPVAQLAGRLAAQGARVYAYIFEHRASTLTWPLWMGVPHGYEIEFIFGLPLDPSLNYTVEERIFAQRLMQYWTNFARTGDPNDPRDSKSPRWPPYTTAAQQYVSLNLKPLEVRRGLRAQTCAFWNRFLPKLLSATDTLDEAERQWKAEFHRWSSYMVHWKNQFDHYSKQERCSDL
Experiment: Inhibition of Wistar rat brain AChE
Conditions: read-out: I50

C=C(C)[C@H]1C/C=C(/C(=O)OC)C(O)C(=O)C[C@@](C)(O)CC2=CC(C(=O)OC)=C(C1)O2 (stereo partly specified)
IC50: 63 µM

From ChEMBL document CHEMBL1148172, “A New Diterpene from a Soft Coral, Sinularia dissecta” (J Nat Prod, 1993)
